# Measured values as given in patent US20240173432A1, “Compositions and Methods for Treatment of Myotonic Dystrophy Type 1 with CRISPR/SluCas9” (Vertex Pharmaceuticals Incorporated, priority 2021, published 2024).
# Experiments:
# [1] = test system: CTG repeat in the 3′ UTR of human DMPK gene; assay: Dual-cut screening: CTG repeat excision efficiency by loss-of-signal ddPCR; assay type: cell-based; conditions: sgRNA pair, primary DM1 patient myoblasts; for Excision efficiency (by ddPCR): 3 μM DNA-PKi Compound 6 for 48 hours; for Excision efficiency by ddPCR (Vehicle): vehicle (DMSO)
# Experimental: RNPs were assembled with recombinant SluCas9 protein and chemically modified sgRNAs at a ratio of 1:3 (protein:sgRNA). For SINGLE-cut screening, RNP complexes were assembled with 30 pmol of SluCas9 and 90 pmol of sgRNA in P5 Primary Cell Nucleofector Solution (Lonza). After incubation at room temperature for 20 minutes, 10 μL of RNP complex were mixed with two hundred thousand of primary myoblasts resuspended in 10 μL of P5 Nucleofector Solution. For DOUBLE-cut screening, RNP complexes were first assembled for individual sgRNAs with 20 pmol of SluCas9 protein and 60 pmol of sgRNAs in 5 μL of P5 Nucleofector Solution. After incubation at room temperature for 20 minutes, the two RNP complexes (one for upstream sgRNA and one for downstream sgRNA) were mixed at 1:1 ratio and then further mixed with two hundred thousand of primary myoblasts resuspended in 10 μL of P5 Nucleofector Solution.
# The Nucleofector 96-well Shuttle System (Lonza) was used to deliver the SluCa9/sgRNA RNPs into primary DM1 patient myoblasts using the nucleofection program CM138. Following nucleofection, myoblasts from each well of nucleofection shuttle were split into six wells of the 96-well cell culture plate (Greiner, 655090) coated with matrigel. The first three wells were treated with DMSO for 48 hrs before changing to fresh myoblast growth medium, and the other three wells were treated with 3 μM of DNA-PKi Compound 6 for 48 hrs before changing to fresh myoblast growth medium. 72 hrs post nucleofection, two wells of DMSO-treated myoblasts and two wells of DNA-PKi-treated myoblasts from each nucleofection were harvested for genomic DNA extraction using the Kingfisher Flex purification system (Thermal Fisher), whereas one well of DMSO-treated myoblasts and one well of DNA-PKi-treated myoblasts were stained for RNA foci by FISH staining.
# The primers and probes of ddPCR are designed using the online primer design software Primer3Plus (http://www.bioinformatics.nl/cgi-bin/primer3plus/primer3plus.cgi). In some embodiments, two target primers/probe sets were used to detect CTG repeat excision, and a reference primers/probe set were used to amplify a region located in Exon 1 of human DMPK gene and to serve as a reference control for the target sets. The 24 μL of ddPCR reaction consists of 12 μL of Supermix for Probes (no dUTP) (Bio-Rad Laboratories), 1 μL of Reference primers mix (21.6 μM), 1 μL of Reference probe (6 μM), 1 μL of Target primers mix (21.6 μM), 1 μL of Target probe (6 μM), and 8 μL of sample genomic DNA. Droplets were generated using probe oil with the QX200 Droplet Generator (Bio-Rad Laboratories). Droplets were transferred to a 96-well PCR plate, sealed and cycled in a C1000 deep well Thermocycler (Bio-Rad Laboratories) under the following cycling protocol: 1 cycle at 95° C. for 10 min; 40 cycles of 94° C. for 30 see, and 58° C. for 1 min; 1 cycle at 98° C. for 10 min (for enzyme inactivation). The cycled plate was then transferred and read in the FAM and HEX channels using the Bio-Rad QX200 Droplet Reader (Bio-Rad Laboratories). ddPCR analysis is performed with the Bio-Rad QuantaSoft Pro Software.
# To assess the efficiency of SluCas9 sgRNA pairs for inducing CTG repeat excision, Dual-cut screening was performed in which individual SluCas9 sgRNAs and recombinant SluCas9 protein were assembled into ribonucleoprotein (RNP) and delivered into primary DM1 patient myoblasts. Nucleofected myoblasts were treated with either DMSO (vehicle) or 3 μM of DNA-dependent Protein Kinase Inhibitor (DNA-PKi) Compound 6 for 48 hours. 72 hours post-nucleofection, myoblasts were subjected to either genomic DNA isolation or RNA foci staining by fluorescence in situ hybridization (FISH).
# CRISPR repeat excision efficiency was assessed for each of the 88 pairs (FIG. 8A-B and Table 5). CTG repeat excision efficiency percentages are shown for vehicle (DMSO; white bars) and with DNA-PKi (black bars) (FIG. 8B and Table 5).
# [2] = test system: CUG foci in primary DM1 patient myoblasts; assay: Dual-cut screening: FISH staining of CUG RNA foci; assay type: cell-based, human; conditions: sgRNA pair, primary DM1 patient myoblasts; for % of CUG foci free nuclei (DNA-PKi): 3 μM DNA-PKi Compound 6 for 48 hours; for % of CUG foci free nuclei (Vehicle): vehicle (DMSO)
# How it was run: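 SluCas9 RNPs (protein:sgRNA 1:3; 20 pmol SluCas9 + 60 pmol sgRNA per guide, paired 1:1) nucleofected into primary DM1 patient myoblasts, then DMSO or 3 μM DNA-PKi Compound 6 for 48 h. At 72 h post-nucleofection cells fixed, FISH-stained with Cy3-PNA(CAG)5 probe plus anti-MBNL1 and Hoechst; % CUG foci-free nuclei by high-content confocal imaging.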
substance,measurement,setting,value
"SluU08 + SluD83 (guide 1 GCCCCGTTGGAAGACTGAGTGC; guide 2 GTGGGGACAGACAATAAATACC; guide RNA; listed as DNA, chemistry not fully specified)",Excision efficiency (by ddPCR),[1],70.46
same,Excision efficiency by ddPCR (Vehicle),[1],45.64
same,% of CUG foci free nuclei (DNA-PKi),[2],90.38%
same,% of CUG foci free nuclei (Vehicle),[2],68.14%
"SluU21 + SluD100 (guide 1 GCTCGGAGCGGTTGTGAACTGG; guide 2 GTCCAGAGCTTTGGGCAGATGG; guide RNA; listed as DNA, chemistry not fully specified)",Excision efficiency (by ddPCR),[1],63.99
same,Excision efficiency by ddPCR (Vehicle),[1],36.68
same,% of CUG foci free nuclei (DNA-PKi),[2],87.7%
same,% of CUG foci free nuclei (Vehicle),[2],48.33%
"SluU21 + SluD34 (guide 1 GCTCGGAGCGGTTGTGAACTGG; guide 2 CGCGCCAGACGCTCCCCAGAGC; guide RNA; listed as DNA, chemistry not fully specified)",Excision efficiency (by ddPCR),[1],61.75
same,Excision efficiency by ddPCR (Vehicle),[1],42.16
same,% of CUG foci free nuclei (DNA-PKi),[2],88.43%
same,% of CUG foci free nuclei (Vehicle),[2],56.01%
"SluU21 + SluD48 (guide 1 GCTCGGAGCGGTTGTGAACTGG; guide 2 GAGAGCAGCGCAAGTGAGGAGG; guide RNA; listed as DNA, chemistry not fully specified)",Excision efficiency (by ddPCR),[1],59.19
same,Excision efficiency by ddPCR (Vehicle),[1],36.66
same,% of CUG foci free nuclei (DNA-PKi),[2],86.36%
same,% of CUG foci free nuclei (Vehicle),[2],51.76%
"SluU21 + SluD73 (guide 1 GCTCGGAGCGGTTGTGAACTGG; guide 2 CCAAAACGTGGATTGGGGTTGT; guide RNA; listed as DNA, chemistry not fully specified)",Excision efficiency (by ddPCR),[1],61.57
same,Excision efficiency by ddPCR (Vehicle),[1],36.17
same,% of CUG foci free nuclei (DNA-PKi),[2],88.18%
same,% of CUG foci free nuclei (Vehicle),[2],51.12%
"SluU21 + SluD83 (guide 1 GCTCGGAGCGGTTGTGAACTGG; guide 2 GTGGGGACAGACAATAAATACC; guide RNA; listed as DNA, chemistry not fully specified)",Excision efficiency (by ddPCR),[1],63.44
same,Excision efficiency by ddPCR (Vehicle),[1],37.42
same,% of CUG foci free nuclei (DNA-PKi),[2],89.23%
same,% of CUG foci free nuclei (Vehicle),[2],51.65%
"SluU59 + SluD68 (guide 1 CGCGGCCGGCGAACGGGGCTCG; guide 2 CCTGTAGCCTGTCAGCGAGTCG; guide RNA; listed as DNA, chemistry not fully specified)",Excision efficiency (by ddPCR),[1],65.42
same,Excision efficiency by ddPCR (Vehicle),[1],58.24
same,% of CUG foci free nuclei (DNA-PKi),[2],89.37%
same,% of CUG foci free nuclei (Vehicle),[2],62.8125%
"SluU10 + SluD18 (guide 1 CCCGTTGGAAGACTGAGTGCCC; guide 2 TGGAGGATGGAACACGGACGGC; guide RNA; listed as DNA, chemistry not fully specified)",Excision efficiency (by ddPCR),[1],60.59
same,Excision efficiency by ddPCR (Vehicle),[1],51.55
same,% of CUG foci free nuclei (DNA-PKi),[2],89.08%
same,% of CUG foci free nuclei (Vehicle),[2],71.69%
"SluU10 + SluD56 (guide 1 CCCGTTGGAAGACTGAGTGCCC; guide 2 CCAGCCGGCTCCGCCCGCTTCG; guide RNA; listed as DNA, chemistry not fully specified)",Excision efficiency (by ddPCR),[1],54.92
same,Excision efficiency by ddPCR (Vehicle),[1],33.89
same,% of CUG foci free nuclei (DNA-PKi),[2],83.68%
same,% of CUG foci free nuclei (Vehicle),[2],49.83%
"SluU64 + SluD48 (guide 1 GGGCTCGAAGGGTCCTTGTAGC; guide 2 GAGAGCAGCGCAAGTGAGGAGG; guide RNA; listed as DNA, chemistry not fully specified)",Excision efficiency (by ddPCR),[1],80.84
same,Excision efficiency by ddPCR (Vehicle),[1],47.67
same,% of CUG foci free nuclei (DNA-PKi),[2],88.44%
same,% of CUG foci free nuclei (Vehicle),[2],75.45%
"SluU08 + SluD34 (guide 1 GCCCCGTTGGAAGACTGAGTGC; guide 2 CGCGCCAGACGCTCCCCAGAGC; guide RNA; listed as DNA, chemistry not fully specified)",Excision efficiency (by ddPCR),[1],69.47
same,Excision efficiency by ddPCR (Vehicle),[1],58.11
same,% of CUG foci free nuclei (DNA-PKi),[2],91.15%
same,% of CUG foci free nuclei (Vehicle),[2],77.93%
"SluU21 + SluD68 (guide 1 GCTCGGAGCGGTTGTGAACTGG; guide 2 CCTGTAGCCTGTCAGCGAGTCG; guide RNA; listed as DNA, chemistry not fully specified)",Excision efficiency (by ddPCR),[1],58.7
same,Excision efficiency by ddPCR (Vehicle),[1],35.67
same,% of CUG foci free nuclei (DNA-PKi),[2],87.57%
same,% of CUG foci free nuclei (Vehicle),[2],51.5%
"SluU10 + SluD68 (guide 1 CCCGTTGGAAGACTGAGTGCCC; guide 2 CCTGTAGCCTGTCAGCGAGTCG; guide RNA; listed as DNA, chemistry not fully specified)",Excision efficiency (by ddPCR),[1],61.29
same,Excision efficiency by ddPCR (Vehicle),[1],42.37
same,% of CUG foci free nuclei (DNA-PKi),[2],89.5%
same,% of CUG foci free nuclei (Vehicle),[2],68.15%
"SluU10 + SluD73 (guide 1 CCCGTTGGAAGACTGAGTGCCC; guide 2 CCAAAACGTGGATTGGGGTTGT; guide RNA; listed as DNA, chemistry not fully specified)",Excision efficiency (by ddPCR),[1],64.77
same,Excision efficiency by ddPCR (Vehicle),[1],46.13
same,% of CUG foci free nuclei (DNA-PKi),[2],88.46%
same,% of CUG foci free nuclei (Vehicle),[2],69.97%
"SluU08 + SluD56 (guide 1 GCCCCGTTGGAAGACTGAGTGC; guide 2 CCAGCCGGCTCCGCCCGCTTCG; guide RNA; listed as DNA, chemistry not fully specified)",Excision efficiency (by ddPCR),[1],52.26
same,Excision efficiency by ddPCR (Vehicle),[1],32.16
same,% of CUG foci free nuclei (DNA-PKi),[2],83.74%
same,% of CUG foci free nuclei (Vehicle),[2],46.21%
"SluU06 + SluD48 (guide 1 TGTCTTCGACTCCGGGGCCCCG; guide 2 GAGAGCAGCGCAAGTGAGGAGG; guide RNA; listed as DNA, chemistry not fully specified)",Excision efficiency (by ddPCR),[1],63.33
same,Excision efficiency by ddPCR (Vehicle),[1],45.89
same,% of CUG foci free nuclei (DNA-PKi),[2],89.46%
same,% of CUG foci free nuclei (Vehicle),[2],66.88%
"SluU59 + SluD48 (guide 1 CGCGGCCGGCGAACGGGGCTCG; guide 2 GAGAGCAGCGCAAGTGAGGAGG; guide RNA; listed as DNA, chemistry not fully specified)",Excision efficiency (by ddPCR),[1],65.89
same,Excision efficiency by ddPCR (Vehicle),[1],47.17
same,% of CUG foci free nuclei (DNA-PKi),[2],87.28%
same,% of CUG foci free nuclei (Vehicle),[2],62.15%
"SluU10 + SluD100 (guide 1 CCCGTTGGAAGACTGAGTGCCC; guide 2 GTCCAGAGCTTTGGGCAGATGG; guide RNA; listed as DNA, chemistry not fully specified)",Excision efficiency (by ddPCR),[1],64.25
same,Excision efficiency by ddPCR (Vehicle),[1],44.65
same,% of CUG foci free nuclei (DNA-PKi),[2],88.24%
same,% of CUG foci free nuclei (Vehicle),[2],67.81%
"SluU59 + SluD83 (guide 1 CGCGGCCGGCGAACGGGGCTCG; guide 2 GTGGGGACAGACAATAAATACC; guide RNA; listed as DNA, chemistry not fully specified)",Excision efficiency (by ddPCR),[1],64.95
same,Excision efficiency by ddPCR (Vehicle),[1],49.18
same,% of CUG foci free nuclei (DNA-PKi),[2],90.49%
same,% of CUG foci free nuclei (Vehicle),[2],64.61%
